Assay [1] deals with Poly [ADP-ribose] polymerase 1 (Homo sapiens, UniProt P09874). The experiment in a line: Inhibition of PARP-1 (unknown origin).
The target of assay [2] is Poly [ADP-ribose] polymerase 2 (Homo sapiens, UniProt Q9UGN5). The experiment in a line: Inhibition of PARP-2 (unknown origin).
Assay [3] relates to MDA-MB-436. Put plainly: Antiproliferative activity against BRCA1 deficient human MDA-MB-436 cells. The format is functional.
A short description of assay [4]: Antiproliferative activity against BRCA2 deficient chinese hamster V-C8 cells. The format is functional, Cricetulus griseus.
For a further assay, the species on record is Homo sapiens. Put plainly: Selectivity index, ratio of IC50 for PARP-2 (unknown origin) to IC50 for PARP-1 (unknown origin).
Assay [5] deals with MDA-MB-436. The experiment in a line: Antitumor activity against human MDA-MB-436 cells harboring BRCA1 mutation xenografted in mouse assessed as tumor growth inhibition administered orally for 21 days. The note with it: time 21.0 day. It is filed as functional. In general terms: Xenograft models place foreign cells or tissue in a host animal.

pIC50: −log10 of the molar value.

Chain of Poly [ADP-ribose] polymerase 1 (P09874 whole entry): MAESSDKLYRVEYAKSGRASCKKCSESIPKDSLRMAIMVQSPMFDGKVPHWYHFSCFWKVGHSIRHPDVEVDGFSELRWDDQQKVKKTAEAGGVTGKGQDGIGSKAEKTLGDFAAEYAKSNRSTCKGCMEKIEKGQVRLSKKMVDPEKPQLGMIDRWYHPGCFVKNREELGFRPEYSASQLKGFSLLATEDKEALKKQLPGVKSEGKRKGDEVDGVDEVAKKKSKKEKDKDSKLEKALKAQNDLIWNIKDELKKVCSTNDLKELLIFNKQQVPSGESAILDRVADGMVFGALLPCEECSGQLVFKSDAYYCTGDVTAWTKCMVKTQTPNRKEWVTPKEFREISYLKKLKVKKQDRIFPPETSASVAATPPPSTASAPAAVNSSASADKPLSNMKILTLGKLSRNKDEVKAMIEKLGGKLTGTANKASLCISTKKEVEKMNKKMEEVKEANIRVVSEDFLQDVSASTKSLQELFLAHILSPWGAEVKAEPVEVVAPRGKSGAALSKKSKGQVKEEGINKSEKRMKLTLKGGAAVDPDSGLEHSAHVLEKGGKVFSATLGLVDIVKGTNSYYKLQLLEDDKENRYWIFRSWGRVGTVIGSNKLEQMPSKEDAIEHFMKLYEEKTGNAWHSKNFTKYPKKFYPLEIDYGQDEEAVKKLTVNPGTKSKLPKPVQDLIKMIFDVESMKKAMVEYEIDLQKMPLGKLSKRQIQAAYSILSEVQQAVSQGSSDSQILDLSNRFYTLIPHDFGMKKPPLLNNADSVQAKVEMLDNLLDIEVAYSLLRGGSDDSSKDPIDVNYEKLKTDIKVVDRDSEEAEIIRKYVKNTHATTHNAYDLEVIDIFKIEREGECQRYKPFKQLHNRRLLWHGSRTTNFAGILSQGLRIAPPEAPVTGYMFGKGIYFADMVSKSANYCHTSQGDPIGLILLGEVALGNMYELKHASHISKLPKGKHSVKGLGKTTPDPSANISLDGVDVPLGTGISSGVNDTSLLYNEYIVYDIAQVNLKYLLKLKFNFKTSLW
Chain of Poly [ADP-ribose] polymerase 2 (Q9UGN5 whole entry): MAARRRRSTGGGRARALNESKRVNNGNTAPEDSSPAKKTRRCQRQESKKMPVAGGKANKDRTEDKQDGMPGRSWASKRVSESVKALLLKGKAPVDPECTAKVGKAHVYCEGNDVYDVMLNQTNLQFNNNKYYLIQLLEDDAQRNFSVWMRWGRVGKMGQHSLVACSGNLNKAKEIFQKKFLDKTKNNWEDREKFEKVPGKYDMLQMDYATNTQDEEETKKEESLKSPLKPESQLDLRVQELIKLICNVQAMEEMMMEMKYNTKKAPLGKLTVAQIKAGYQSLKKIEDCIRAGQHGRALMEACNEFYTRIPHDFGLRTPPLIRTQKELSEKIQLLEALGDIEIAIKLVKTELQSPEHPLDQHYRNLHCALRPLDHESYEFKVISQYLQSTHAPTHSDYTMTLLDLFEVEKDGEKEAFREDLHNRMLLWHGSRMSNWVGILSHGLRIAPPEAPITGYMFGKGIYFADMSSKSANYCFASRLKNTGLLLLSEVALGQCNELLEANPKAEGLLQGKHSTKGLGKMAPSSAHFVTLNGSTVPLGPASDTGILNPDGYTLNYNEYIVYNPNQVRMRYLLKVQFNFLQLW

For `NC(=O)c1cc(Cl)c2ccc(-c3cc4c(s3)CCNC4)nn12`, the pIC50 (as a rule, the negative decadic logarithm of the IC50, by convention in mol/L) is 8.14 in assay [1] and 6.68 in assay [2]. Moreover, the CC50 (usually the concentration at which the toxic effect on the cells reaches its halfway point) was determined as 214 nM in the assay with MDA-MB-436 [3] (Homo sapiens, MDA-MB-436) and 1330 nM in assay [4] (Cricetulus griseus, V-C8).

For `NC(=O)c1cc(Cl)c2ccc(-c3ccc(CN4CCN(C5CC5)CC4)cc3)nn12`, the pIC50 is 5.97 in assay [1] and 6.00 in assay [2]. Further, the CC50 with MDA-MB-436 [3] (Homo sapiens, MDA-MB-436) is 75200 nM; in assay [4] (Cricetulus griseus, V-C8), above 10000 nM. In addition, the Ratio IC50 in the assay listed under Homo sapiens was 0.92.

For the compound `COC1CCN(C(=O)c2ccc(-c3ccc4c(Cl)cc(C(N)=O)n4n3)c(F)c2)CC1`, the pIC50 is 6.94 in assay [1] and 5.78 in assay [2]. Moreover, in the assay listed under Homo sapiens, the Ratio IC50 was determined as 8.9.

On to `CN1CCc2cc(-c3ccc4c(Cl)cc(C(N)=O)n4n3)sc2C1`, for which the results for the pIC50 in assay [1] and in assay [2] were 6.85 and 6.42, respectively. In addition, the CC50 in the assay on MDA-MB-436 [3] (Homo sapiens, MDA-MB-436) turned out to be 2580 nM; in assay [4] (Cricetulus griseus, V-C8), 3620 nM. In addition, the Ratio IC50 in the assay filed under Homo sapiens stood at 2.7.

As for `COC1CCN(C(=O)c2ccc(-c3ccc4c(Cl)cc(C(N)=O)n4n3)cc2)CC1`, the pIC50 was 5.45 in assay [1] and 5.35 in assay [2]. Moreover, the Ratio IC50 in the assay listed under Homo sapiens is 1.28. This compound also returned a CC50 in assay [4] (Cricetulus griseus, V-C8) of 4420 nM.

With `NC(=O)c1cc(Cl)c2ccc(-c3ccc(C(=O)N4CCNCC4)cc3)nn12`, the pIC50 in assay [1] was 6.47; in assay [2], 6.00. Besides, the CC50 in the assay on MDA-MB-436 [3] (Homo sapiens, MDA-MB-436) is 8090 nM; in assay [4] (Cricetulus griseus, V-C8) it was above 10000 nM. Besides, the Ratio IC50 in the assay filed under Homo sapiens turned out to be 3.

With `NC(=O)c1cc(Cl)c2ccc(-c3ccc(CN4CCNCC4)cc3)nn12`, the pIC50 was 6.20 in assay [1] and 5.63 in assay [2]. The compound further showed a CC50 in the assay with MDA-MB-436 [3] (Homo sapiens, MDA-MB-436) of 9670 nM. Also, the Ratio IC50 in the assay filed under Homo sapiens came to 3.7.

For `CC(C)CC(=O)N1CCN(C(=O)c2ccc(-c3ccc4c(Cl)cc(C(N)=O)n4n3)cc2)CC1`, the pIC50 in assay [1] was 6.30; in assay [2], 6.00. The CC50 in the assay with MDA-MB-436 [3] (Homo sapiens, MDA-MB-436) was 3840 nM; in assay [4] (Cricetulus griseus, V-C8), 5750 nM. Also, the Ratio IC50 in the assay filed under Homo sapiens came out at 2.

Regarding `CCN(CC)Cc1ccc(-c2ccc3c(Cl)cc(C(N)=O)n3n2)cc1`, the pIC50 in assay [1] was 6.36; in assay [2], 5.66. For the same compound, the CC50 with MDA-MB-436 [3] (Homo sapiens, MDA-MB-436) is 3730 nM; in assay [4] (Cricetulus griseus, V-C8), 3510 nM. Moreover, in the assay listed under Homo sapiens, the Ratio IC50 came to 5.1.

As for `NC(=O)c1cc(Cl)c2ccc(-c3ccc(CN4CCN(c5ccc(C(F)(F)F)cc5)CC4)cc3)nn12`, the pIC50 in assay [1] is 5.48; in assay [2], 6.35. The CC50 is 8090 nM in the assay on MDA-MB-436 [3] (Homo sapiens, MDA-MB-436) and above 10000 nM in assay [4] (Cricetulus griseus, V-C8). The Ratio IC50 in the assay listed under Homo sapiens came out at 0.13.

Regarding `CNCc1ccc(-c2ccc3c(Cl)cc(C(N)=O)n3n2)cc1`, the figures for the pIC50 in assay [1] and in assay [2] were 6.60 and 5.95, respectively. Besides, the CC50 was determined as 1280 nM in the assay on MDA-MB-436 [3] (Homo sapiens, MDA-MB-436) and 2000 nM in assay [4] (Cricetulus griseus, V-C8). The Ratio IC50 in the assay listed under Homo sapiens is 4.5.

In the case of `CC(C)(C)C1NCCc2cc(-c3ccc4c(Cl)cc(C(N)=O)n4n3)sc21` (centres undefined), the pIC50 in assay [1] was 5.99; in assay [2] it was 6.00. Also, the CC50 came out at 1460 nM in the assay with MDA-MB-436 [3] (Homo sapiens, MDA-MB-436) and 2040 nM in assay [4] (Cricetulus griseus, V-C8). In the assay listed under Homo sapiens, the Ratio IC50 is 0.97.

As for `COC1CCN(C(=O)c2ccc(-c3ccc4c(Cl)cc(C(N)=O)n4n3)cc2)C1` (centres undefined), the values for the pIC50 in assay [1] and in assay [2] were 6.44 and 5.77, respectively. The CC50 in the assay with MDA-MB-436 [3] (Homo sapiens, MDA-MB-436) turned out to be 9640 nM. Moreover, the Ratio IC50 in the assay listed under Homo sapiens was determined as 4.74.

On to `NC(=O)c1cc(Cl)c2ccc(-c3ccc(C(=O)N4CCN(C(=O)C5CC5)CC4)cc3)nn12`, for which the values for the pIC50 in assay [1] and in assay [2] were 6.35 and 5.96, respectively. Also, the CC50 was determined as 9540 nM in the assay on MDA-MB-436 [3] (Homo sapiens, MDA-MB-436) and 2480 nM in assay [4] (Cricetulus griseus, V-C8). For the same compound, the Ratio IC50 in the assay filed under Homo sapiens is 2.5.

For `O=C(c1cc(Cc2n[nH]c(=O)c3ccccc23)ccc1F)N1CCN(C(=O)C2CC2)CC1` [OLAPARIB], the CC50 in the assay with MDA-MB-436 [3] came to 11.4 nM; in assay [4] it was 400 nM.

Regarding `NC(=O)c1cc(Cl)c2ccc(-c3ccc(CN4CCCC4)cc3)nn12`, the pIC50 is 6.36 in assay [1] and 5.95 in assay [2]. Also, the CC50 in the assay with MDA-MB-436 [3] (Homo sapiens, MDA-MB-436) came to 5400 nM; in assay [4] (Cricetulus griseus, V-C8), 2150 nM. Further, the Ratio IC50 in the assay filed under Homo sapiens worked out at 2.6.

On to `COC1CCN(C(=O)c2ccc(-c3ccc4c(Cl)cc(C(N)=O)n4n3)c(F)c2)C1` (centres undefined), for which the pIC50 in assay [1] was 6.18; in assay [2], 5.80. In the assay filed under Homo sapiens, the Ratio IC50 worked out at 2.4.

In the case of `NC(=O)c1cc(Cl)c2cc(-c3cc4c(s3)CNCC4)cnn12`, in the assay on MDA-MB-436 [5], the TGI entry is “Dose-dependent effect”.

On to `NC(=O)c1cc(Cl)c2ccc(-c3ccc(C(=O)N4CCN(C(=O)C5CC5)CC4)cc3F)nn12`, for which the pIC50 in assay [1] is 6.66; in assay [2] it was 5.63. The CC50 with MDA-MB-436 [3] (Homo sapiens, MDA-MB-436) was 2950 nM; in assay [4] (Cricetulus griseus, V-C8) it was 2310 nM. Moreover, in the assay listed under Homo sapiens, the Ratio IC50 came to 10.7.

Take `NC(=O)c1cc(Cl)c2ccc(-c3ccc(F)c(C(=O)N4CCN(C(=O)C5CC5)CC4)c3)nn12`: the results for the pIC50 in assay [1] and in assay [2] were 6.78 and 5.72, respectively. For the same compound, the Ratio IC50 in the assay listed under Homo sapiens was determined as 11.6. The CC50 in assay [4] (Cricetulus griseus, V-C8) stood at 7030 nM.

Take `CN(C)Cc1ccc(-c2ccc3c(Cl)cc(C(N)=O)n3n2)cc1`: the negative logarithm of the IC50 (pIC50) was 7.03 in assay [1] and 6.15 in assay [2]. In addition, the CC50 came out at 687 nM in the assay on MDA-MB-436 [3] (Homo sapiens, MDA-MB-436) and 6200 nM in assay [4] (Cricetulus griseus, V-C8). In the assay filed under Homo sapiens, the Ratio IC50 amounted to 7.5.

As for `CN1CCc2sc(-c3ccc4c(Cl)cc(C(N)=O)n4n3)cc2C1`, the pIC50 in assay [1] was 6.81; in assay [2] it was 6.44. The CC50 with MDA-MB-436 [3] (Homo sapiens, MDA-MB-436) was 3050 nM; in assay [4] (Cricetulus griseus, V-C8) it was 2640 nM. Besides, the Ratio IC50 in the assay listed under Homo sapiens amounted to 2.3.

For `CN(C)C1CCN(Cc2ccc(-c3ccc4c(Cl)cc(C(N)=O)n4n3)cc2)CC1`, the pIC50 was 6.09 in assay [1] and 5.95 in assay [2]. In addition, the CC50 with MDA-MB-436 [3] (Homo sapiens, MDA-MB-436) is 5480 nM; in assay [4] (Cricetulus griseus, V-C8) it was 2780 nM. In the assay listed under Homo sapiens, the Ratio IC50 turned out to be 1.4.

In the case of `CC(C)N1CCN(Cc2ccc(-c3ccc4c(Cl)cc(C(N)=O)n4n3)cc2)CC1`, the figures for the pIC50 in assay [1] and in assay [2] were 6.43 and 5.84, respectively. The CC50 was 3550 nM with MDA-MB-436 [3] (Homo sapiens, MDA-MB-436) and 2700 nM in assay [4] (Cricetulus griseus, V-C8). For the same compound, in the assay filed under Homo sapiens, the Ratio IC50 is 3.9.

For the origin of these results see ChEMBL document CHEMBL4673325, “Identification of 2-substituted pyrrolo[1,2-b]pyridazine derivatives as new PARP-1 inhibitors” (Bioorg Med Chem Lett, 2021).
